One may read the inhibition as the drop in the measured response relative to a control, in per cent.

We go through 37 molecules from patent EP0970046B1, “N-HYDROXY-2-(ALKYL, ARYL, OR HETEROARYL SULFANYL, SULFINYL OR SULFONYL)-3-SUBSTITUTED ALKYL, ARYL OR HETEROARYLAMIDES AS MATRIX METALLOPROTEINASE INHIBITORS” (Wyeth Holdings Corporation, priority 1997, dated 1998).

One assay has as its target MMP 13 (Homo sapiens, UniProt P45452). As to the kind of experiment: MMP 13 inhibition (HTS; method not described). The class given is biochemical. As to conditions: for inhibition at 0.2 µM: read-out: MMP 13 % inhibition at 0.2 µM (HTS); for inhibition at 0.036 µM: read-out: MMP 13 % inhibition at 36 nM (HTS); for MMP 13 % inhibition at 36 nM (HTS) / inhibition at 0.036 µM: 36 nM; for inhibition at 3600 µM: read-out: MMP 13 % inhibition at 3.6 mM (HTS).

In the next assay the target is T1, TACE (Homo sapiens, UniProt P78536).
T1 construct: purchased Immunex
T1 sequence (P78536 215-824): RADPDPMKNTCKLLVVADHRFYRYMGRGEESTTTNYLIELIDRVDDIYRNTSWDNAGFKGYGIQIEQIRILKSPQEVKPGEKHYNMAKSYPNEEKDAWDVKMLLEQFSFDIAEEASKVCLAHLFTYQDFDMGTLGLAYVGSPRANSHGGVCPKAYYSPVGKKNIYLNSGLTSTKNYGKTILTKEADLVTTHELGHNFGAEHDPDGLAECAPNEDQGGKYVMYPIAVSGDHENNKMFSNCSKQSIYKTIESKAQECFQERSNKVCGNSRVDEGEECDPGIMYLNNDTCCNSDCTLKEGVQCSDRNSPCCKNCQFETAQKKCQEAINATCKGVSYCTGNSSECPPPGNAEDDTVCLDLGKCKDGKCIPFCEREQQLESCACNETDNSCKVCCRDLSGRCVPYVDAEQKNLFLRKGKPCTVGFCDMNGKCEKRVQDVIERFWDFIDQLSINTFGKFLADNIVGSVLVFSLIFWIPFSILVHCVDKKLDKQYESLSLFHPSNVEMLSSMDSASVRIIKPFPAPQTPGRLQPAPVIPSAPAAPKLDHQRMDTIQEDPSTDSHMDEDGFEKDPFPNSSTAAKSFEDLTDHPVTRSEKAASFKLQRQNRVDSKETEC
Nature of the assay: Procedure for Measuring TACE Inhibition. The class given is biochemical. The note with it: 1 µM; for inhibition at 1 µM: read-out: TACE % inhibition at 1 µM. Here is the method: Using 96-well black microtiter plates, each well receives a solution composed of 10 µL TACE (Immunex, final concentration 1µg/mL), 70µL Tris buffer, pH 7.4 containing 10% glycerol (final concentration 10 mM), and 10 µL of test compound solution in DMSO (final concentration 1µM, DMSO concentration <1%) and incubated for 10 minutes at room temperature. The reaction is initiated by addition of a fluorescent peptidyl substrate (final concentration 100 µM) to each well and then shaking on a shaker for 5 sec. The reaction is read (excitation 340 nm, emission 420 nm) for 10 min. and the increase in fluorescence over time is plotted as a linear line. The slope of the line is calculated and represents the reaction rate. The linearity of the reaction rate is confirmed (r^2 >0.85). The mean (x±sem) of the control rate is calculated and compared for statistical significance (p<0.05) with drug-treated rates using Dunnett's multiple comparison test.

As to “2,5-Dichloro-thiophene-3-sulfonic acid 4-(1-hydroxycarbamoyl-heptylsulfanyl)-hydroxyamide [Example 233]”, the “MMP 13 % inhibition at 36 nM (HTS)” value on MMP 13 (HTS) was 33%. Besides, the “TACE % inhibition at 1 µM” value at TACE (Examples 169-240) is recorded as 19.8%.
Regarding “3-Bromo-2-chloro-thiophene-2-sulfonic acid 4-(1-hydroxycarbamoyl-heptylsulfonyl)-hydroxyamide [Example 239]”, the “MMP 13 % inhibition at 36 nM (HTS)” value at MMP 13 (HTS) was determined as 54%. The “TACE % inhibition at 1 µM” value at TACE (Examples 169-240) is 45.9%.
For “5-Chloro-1,3-dimethyl-1H-pyrazole-4-sulfonic acid 4-(1-hydroxycarbamoyl-heptylsulfinyl)-hydroxyamide [Example 235]”, the “MMP 13 % inhibition at 36 nM (HTS)” value on MMP 13 (HTS) was 59%. Further, the “TACE % inhibition at 1 µM” value on TACE (Examples 169-240) amounted to 48.3%.
As to “5-Pyridin-2-yl-thiophene-2-sulfonic acid 4(1-hydroxycarbamoyl-heptylsulfinyl)-hydroxy amide [Example 237]”, at MMP 13 (HTS), the “MMP 13 % inhibition at 36 nM (HTS)” value is recorded as 55%. In addition, the “TACE % inhibition at 1 µM” value at TACE (Examples 169-240) is 38.2%.
On to `COc1ccc(S(=O)(=O)C(C)C(=O)NO)cc1` (centres unmarked) [Example 110, N-Hydroxy-2-(4-methoxy-benzenesulfonyl)-propionamide], for which the inhibition at 0.2 µM at MMP 13 (HTS) was 75%. Further, the inhibition at 1 µM at TACE (Examples 110-168) came to 17.6%.
In the case of `COc1ccc(SC(C)C(=O)NO)cc1` (centres unmarked) [Example 111, N-Hydroxy-2-(4-methoxy-benzenesulfanyl)-propionamide], the “MMP 13 % inhibition at 0.2 µM (HTS)” value at MMP 13 (HTS) was 10%. At TACE (Examples 110-168), the “TACE % inhibition at 1 µM” value turned out to be 40.4%.
The like results for `CC(C)CCSC(C)C(=O)NO` (centres unmarked) [Example 112, N-Hydroxy-2-(3-methyl-butane-1-sulfanyl)-propionamide] were, in that order, 50% and 33.7%.
Take `CC(C)CCS(=O)(=O)C(C)C(=O)NO` (centres unmarked) [Example 113, N-Hydroxy-2-(3-methyl-butane-1-sulfonyl)-propionamide]: at MMP 13 (HTS), the inhibition at 0.2 µM turned out to be 0%. Moreover, the inhibition at 1 µM at TACE (Examples 110-168) worked out at 13.1%.
Turning to `CC(C)C(Sc1ccc2ccccc2c1)C(=O)NO` (centres unmarked) [Example 114, N-hydroxy-3-methyl-2-(naphthalen-2-ylsulfanyl)-butyramide], the inhibition at 0.2 µM on MMP 13 (HTS) was 0%. The inhibition at 1 µM on TACE (Examples 110-168) came to 0%.
Regarding `CC(C)C(C(=O)NO)[S+]([O-])c1ccc2ccccc2c1` (centres unmarked) [Example 115, N-Hydroxy-3-methyl-2-(naphthalen-2-ylsulfinyl)-butyramide], the inhibition at 0.2 µM at MMP 13 (HTS) stood at 0%. For the same molecule, the inhibition at 1 µM on TACE (Examples 110-168) turned out to be 0%.
Take `CC(C)C(C(=O)NO)S(=O)(=O)c1ccc2ccccc2c1` (centres unmarked) [Example 116, N-Hydroxy-3-methyl-2-(naphthalen-2-ylsulfonyl)-butyramide]: the inhibition at 0.2 µM on MMP 13 (HTS) stood at 0%. The inhibition at 1 µM at TACE (Examples 110-168) stood at 9.1%.
`CC(C)C(C(=O)NO)S(=O)(=O)CCc1ccccc1` (centres unmarked) [Example 118, N-Hydroxy-3-methyl-2-phenethylsulfonyl-butyramide]: the inhibition at 0.2 µM on MMP 13 (HTS) was 24%. In addition, at TACE (Examples 110-168), the inhibition at 1 µM is 16.7%.
For the molecule `CCC(SCC(=O)OC)C(=O)NO` (centres unmarked) [Example 119, (1-Hydroxycarbamoyl-propane-1-sulfanyl)-acetic acid methyl ester], the “MMP 13 % inhibition at 0.2 µM (HTS)” value on MMP 13 (HTS) was 0%. The “TACE % inhibition at 1 µM” value on TACE (Examples 110-168) is reported as 7.8%.
As for `O=C(NO)C(Cc1ccccc1)[S+]([O-])c1ccc(O)cc1` (centres unmarked) [Example 126, 2-(4-Hydroxybenzenesulfinyl)-N-hydroxy-3-phenyl-propionamide], the inhibition at 0.2 µM on MMP 13 (HTS) amounted to 25%. The inhibition at 1 µM on TACE (Examples 110-168) was found to be 10.4%.
For `O=C(NO)C(Cc1ccccc1)S(=O)(=O)c1ccc(O)cc1` (centres unmarked) [Example 127, 2-(4-Hydroxybenzenesulfonyl)-N-hydroxy-3-phenyl-propionamide], the inhibition at 0.2 µM on MMP 13 (HTS) stood at 47%. On TACE (Examples 110-168), the inhibition at 1 µM came to 29.2%.
On to `CC(=O)Nc1ccc(S(=O)(=O)C(Cc2ccccc2)C(=O)NO)cc1` (centres unmarked) [Example 130, 2-(4-Acetylamino-benzenesulfonyl)-N-hydroxy-3-phenyl-propionamide], for which the inhibition at 0.2 µM at MMP 13 (HTS) worked out at 28%. Moreover, at TACE (Examples 110-168), the inhibition at 1 µM came to 27.9%.
For the molecule `O=C(CCC(Sc1ccc(Br)cc1)C(=O)NO)NO` (centres unmarked) [Example 134, 4-Hydroxycarbamoyl-4-(4-bromo-benzenesulfanyl)-butyric acid hydroxyamide], the “MMP 13 % inhibition at 0.2 µM (HTS)” value on MMP 13 (HTS) is listed as 25%. Also, the “TACE % inhibition at 1 µM” value at TACE (Examples 110-168) is -9.31%.
Turning to `O=C(CCC(C(=O)NO)S(=O)(=O)c1ccc(Br)cc1)NO` (centres unmarked) [Example 136, 4-Hydroxycarbamoyl-4-(4-bromo-benzenesulfonyl)-butyric acid hydroxyamide], the inhibition at 0.2 µM at MMP 13 (HTS) stood at 89%. Moreover, the inhibition at 1 µM on TACE (Examples 110-168) was determined as 42.7%.
For the molecule `O=C(CCC(Sc1ccccc1C(F)(F)F)C(=O)NO)NO` (centres unmarked) [Example 137, 4-Hydroxycarbamoyl-4-(2-trifluoromethyl-benzenesulfanyl)-butyric acid hydroxyamide], the “MMP 13 % inhibition at 0.2 µM (HTS)” value on MMP 13 (HTS) is listed as 83%. At TACE (Examples 110-168), the “TACE % inhibition at 1 µM” value is reported as 13.35%.
In the case of `CS(=O)(=O)c1ccc(S(=O)(=O)C(COCc2ccccc2)C(=O)NO)cc1` (centres unmarked) [Example 148, 3-Benzyloxy-N-hydroxy-2-(4-methanesulfonyl-benzenesulfonyl)-propionamide], the inhibition at 0.2 µM at MMP 13 (HTS) came to 15%. The inhibition at 1 µM at TACE (Examples 110-168) was determined as 43.5%.
Consider `O=C(NO)C(COCc1ccccc1)SCc1ccccc1Cl` (centres unmarked) [Example 149, 3-Benzyloxy-N-hydroxy-2-(2-chloro-benzylsulfanyl)-propionamide], for which, at MMP 13 (HTS), the inhibition at 0.2 µM turned out to be 13%. Besides, the inhibition at 1 µM at TACE (Examples 110-168) is 4.41%.
Regarding `CCCCCCC(Sc1nc2ccccc2[nH]1)C(=O)NO` (centres unmarked) [Example 168, 2-(2-Benzimidazol-2-ylsulfanyl)-octanoic acid hydroxyamide], at MMP 13 (HTS), the inhibition at 0.2 µM came to 21%.
As to `CCCCCCC(Sc1nc2ccccc2o1)C(=O)NO` (centres unmarked) [Example 169, 2-(2-Benzooxazol-2-ylsulfanyl)-octanoic acid hydroxyamide], the inhibition at 0.036 µM on MMP 13 (HTS) was 28%.
On the same count and under the same terms, to `CCCCCCC(Sc1nc2ccccc2s1)C(=O)NO` (centres unmarked) [Example 170, 2-(2-Benzothiazol-2-ylsulfanyl)-octanoic acid hydroxyamide] belongs 32%.
As for `CCCCCCC(SCCc1ccccn1)C(=O)NO` (centres unmarked) [Example 173, 2-(2-Pyridin-2-yl-ethylsulfanyl)-octanoic acid hydroxyamide], the inhibition at 0.036 µM at MMP 13 (HTS) came out at 18%.
Consider `CCCCCCC(C(=O)NO)[S+]([O-])c1nc2ccccc2[nH]1` (centres unmarked) [Example 177, 2-(2-Benzimidazol-2-ylsulfinyl)-octanoic acid hydroxyamide], for which the inhibition at 0.036 µM on MMP 13 (HTS) was 5%.
`CCCCCCC(C(=O)NO)[S+]([O-])c1ccccn1` (centres unmarked) [Example 178, 2-(2-Pyridine-2-sulfinyl)-octanoic acid hydroxyamide]: on MMP 13 (HTS), the inhibition at 0.036 µM is -10%. Besides, the inhibition at 3600 µM at MMP 13 is 39%.
As to `CCCCCCC(C(=O)NO)S(=O)(=O)c1[nH]c2ccccc2[n+]1[O-]` (centres unmarked) [Example 181, 2-(3-Oxy-1H-benzimidazole-2-sulfonyl)-octanoic acid hydroxyamide], the inhibition at 0.036 µM on MMP 13 (HTS) stood at 6%. Further, the inhibition at 360 µM at MMP 13 (read-out: MMP 13 % inhibition at 0.36 mM (HTS)) amounted to 35%. Also, the inhibition at 3600 µM on MMP 13 amounted to 62%.
For the molecule `CCCCCCC(C(=O)NO)S(=O)(=O)CCc1cccc[n+]1[O-]` (centres unmarked) [Example 183, 2-[2-(1-Oxy-pyridin-2-yl)-ethanesulfonyl]-octanoic acid hydroxyamide], the inhibition at 0.036 µM at MMP 13 (HTS) is -6%.
Consider `CCCCCCC(C(=O)NO)[S+]([O-])CC(=O)Nc1ccc2ccccc2c1` (centres unmarked) [Example 191, 2-(Naphthalen-2-ylcarbamoylmethanesulfinyl)-octanoic acid hydroxyamide], for which the inhibition at 0.036 µM on MMP 13 (HTS) is -45%.
On the same count and under the same terms, the same measure for `CCCCCCC(C(=O)NO)S(=O)(=O)c1nccs1` (centres unmarked) [Example 195, 2-(Thiazol-2-ylsulfonyl)-octanoic acid hydroxyamide]: -9%.
`CCCCCCC(C(=O)NO)S(=O)(=O)c1cccc2cccnc12` (centres unmarked) [Example 196, 2-(Quinoline-8-sulfonyl)-octanoic acid hydroxyamide]: at MMP 13 (read-out: MMP 13 % inhibition (HTS), HTS), the inhibition is 11%. Also, the inhibition at 0.036 µM at MMP 13 (HTS) is -18%.
On to `CCCCCCC(C(=O)NO)S(=O)(=O)CC1NC(=O)NC1=O` (centres unmarked) [Example 198, 2-(2,5-Dioxo-imidazolidin-4-ylmethylsulfonyl)-octanoic acid hydroxyamide], for which the inhibition at 0.036 µM on MMP 13 (HTS) was -39%.
As to `CCCCCCC(Sc1ccc(OCc2ccccc2)cc1)C(=O)NO` (centres unmarked) [Example 199, 2-(4-Benzyloxy-phenylsulfanyl)-octanoic acid hydroxyamide], on MMP 13 (HTS), the inhibition at 0.036 µM was -10%.
The same measure, in the same setting: to `CCCCCCC(Sc1ccc(OS(=O)(=O)c2ccccc2)cc1)C(=O)NO` (centres unmarked) [Example 232, Benzenesulfonic acid 4-(1-hydroxycarbamoyl-heptylsulfanyl)-phenyl ester] belongs 30%; to `CCCCCCC(C(=O)NO)S(=O)(=O)c1ccc(OS(=O)(=O)c2ccccc2[N+](=O)[O-])cc1` (centres unmarked) [Example 238, 2-Nitro-benzenesulfonic acid 4-(1-hydroxycarbamoyl-heptylsulfonyl)-hydroxyamide], 22%.
With “(1-Hydroxycarbamoyl-propane-1-sulfinyl)-propionic acid hydroxyamide [Example 123]”, on MMP 13 (HTS), the “MMP 13 % inhibition at 0.2 µM (HTS)” value came to 0%.
